Target: T1, α7 nAChR (Homo sapiens, UniProt P36544)
T1 construct: expressed in transfected cells; host or cells: Xenopus oocytes (cRNA injection)
Test: α7 nAChR positive allosteric modulator activity assay, voltage clamp in Xenopus oocytes with 100 μM ACh
Assay type: cell-based
Details: for activity at 10 µM: at 10 μM compound, current induced by 100 μM ACh, Xenopus oocytes expressing α7 nAChR, read-out: Max Mod (%, at 10 μM); for EC50: potentiation of current induced by 100 μM ACh, Hill equation fit
Procedure: The experimental process was as follows:
(1) Xenopus oocytes were injected with cRNA encoding α7 nAChR in order to express α7 nAChR on the cell membrane successfully;
(2) 100 μM ACh alone was added, and the α7 nAChR characteristic current caused by it was recorded as a control;
(5) The oocytes were incubated for 1 min with 10 μM compound, then 10 µM compound and 100 μM ACh were added simultaneously and the current induced by ACh was recorded at this time;
(6) The differences between the two currents in terms of peak intensity and duration were compared, with the ratio of peak intensity of the two currents representing the adjustment effect (Enhance Rate), in order to determine whether the compound had PAM activity, if the activity was good, then the subsequent test was carried out;
(7) Concentration gradient was set and the effects of compounds at different concentrations on the α7 nAChR characteristic current induced by 100 μM ACh were evaluated. Several determinations were carried out at the same concentration, and the results were presented in the form of “mean±standard deviation”;
(8) The EC50 (median maximum effect concentration) values and Max mod (the current amplitude caused by the maximal degree of adjustable endogenous agonist acetylcholine) values of the compounds and other activity data were obtained by Hill equation Inormalized=Emax/(1+(EC50/C)nH).
The amplitude of the peak current is only normalized by the amplitude produced by 100 μM ACh and different concentrations of LD486. […] It can be seen from FIG. 3 that the Hill equation is used to fit the dose-response curve and calculate the kinetic parameters.

T1 sequence (P36544 23-502): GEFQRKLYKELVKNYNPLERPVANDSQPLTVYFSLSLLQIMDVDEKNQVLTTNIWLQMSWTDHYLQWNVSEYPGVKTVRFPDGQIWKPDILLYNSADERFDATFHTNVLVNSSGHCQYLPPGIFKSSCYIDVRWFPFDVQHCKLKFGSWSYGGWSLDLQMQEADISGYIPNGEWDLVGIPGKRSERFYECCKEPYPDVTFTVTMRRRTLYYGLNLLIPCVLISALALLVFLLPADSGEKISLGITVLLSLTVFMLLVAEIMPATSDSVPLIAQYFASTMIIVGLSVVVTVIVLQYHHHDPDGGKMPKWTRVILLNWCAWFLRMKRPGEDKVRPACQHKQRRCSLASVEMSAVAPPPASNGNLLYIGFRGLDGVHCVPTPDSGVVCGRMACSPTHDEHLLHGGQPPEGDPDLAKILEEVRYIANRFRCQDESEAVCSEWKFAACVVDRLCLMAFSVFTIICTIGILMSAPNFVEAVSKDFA

## Cc1cccc(Cl)c1-n1cnc2nc(NC(=O)c3ccc(OC(F)(F)F)cc3)sc2c1=O [JWX-A-C1205, N-(6-(2-Chloro-6-methylphenyl)-7-oxo-6,7-dihydrothiazolo[4,5-d]pyrimidin-2-yl)-4-(trifluoromethoxy)benzamide]
  activity at 10 µM: 980%
  EC50: 10.8 µM

## Cc1cc(Nc2nc3ncn(-c4c(C)cccc4Cl)c(=O)c3s2)cc(C)c1C [JWX-A0322, 6-(2-Chloro-6-methylphenyl)-2-((3,4,5-trimethylphenyl)amino)thiazolo[4,5-d]pyrimidin-7(6H)-one]
  activity at 10 µM: 600%
  EC50: 3.15 µM

## Cc1ccc(Nc2nc3ncn(-c4ccccc4Cl)c(=O)c3s2)cc1F [JWX-A-C0831, 6-(2-Chlorophenyl)-2-((3-fluoro-4-methylphenyl)amino)thiazolo[4,5-d]pyrimidin-7(6H)-one]
  activity at 10 µM: 380%
  EC50: 10 µM

## Cc1nc(Nc2nc3ncn(-c4c(C)cccc4Cl)c(=O)c3s2)cc(N2CCN(C)CC2)n1 [JWX-A1022, 6-(2-Chloro-6-methylphenyl)-2-((2-methyl-6-(4-methylpiperazin-1-yl)pyrimidin-4-yl)amino)thiazolo[4,5-d]pyrimidin-7(6H)-one]
  activity at 10 µM: 110%

## Cc1cc(C)c(-n2cnc3nc(Nc4ccccn4)sc3c2=O)c(C)c1 [LD286, 6-Mesityl-2-(pyridin-2-ylamino)thiazolo[4,5-d]pyrimidin-7(6H)-one]
  activity at 10 µM: 110%

## COc1ccc(Nc2nc3ncn(-c4c(C)cccc4Cl)c(=O)c3s2)cc1 [JWX-A1030, 6-(2-Chloro-6-methylphenyl)-2-((4-methoxyphenyl)amino)thiazolo[4,5-d]pyrimidin-7(6H)-one]
  activity at 10 µM: 200%
  EC50: 10 µM

## Cc1cccc(Cl)c1-n1cnc2nc(SCc3ccc(F)cc3)sc2c1=O [LYH150312-4F, 6-(2-Chloro-6-methylphenyl)-2-((4-fluorobenzyl)thio)thiazolo[4,5-d]pyrimidin-7(6H)-one]
  activity at 10 µM: 670%
  EC50: 2.87 µM

## Cc1cccc(Cl)c1-n1cnc2nc(SCc3ccccc3F)sc2c1=O [LYH150309-2F, 6-(2-Chloro-6-methylphenyl)-2-((2-fluorobenzyl)thio)thiazolo[4,5-d]pyrimidin-7(6H)-one]
  activity at 10 µM: 620%
  EC50: 4.18 µM

## Cc1ccc(C(=O)Nc2nc3ncn(-c4c(C)cccc4Cl)c(=O)c3s2)cc1 [JWX-A0310, N-(6-(2-Chloro-6-methylphenyl)-7-oxo-6,7-dihydrothiazolo[4,5-d]pyrimidin-2-yl)-4-methylbenzamide]
  activity at 10 µM: 450%
  EC50: 10 µM

## Cc1cccc(Cl)c1-n1cnc2nc(Nc3ccc(Cl)cc3)sc2c1=O [JWX-A1104, 6-(2-Chloro-6-methylphenyl)-2-((4-chlorophenyl)amino)thiazolo[4,5-d]pyrimidin-7(6H)-one]
  activity at 10 µM: 200%
  EC50: 10 µM

## Cc1cccc(Cl)c1-n1cnc2nc(Nc3ccc(Cl)nn3)sc2c1=O [JWX-A0918, 6-(2-Chloro-6-methylphenyl)-2-((6-chloropyridazin-3-yl)amino)thiazolo[4,5-d]pyrimidin-7(6H)-one]
  activity at 10 µM: 110%

## Cc1cccc(Cl)c1-n1cnc2nc(-c3ccccc3)sc2c1=O [JWX-C1200, 6-(2-Chloro-6-methylphenyl)-2-phenylthiazolo[4,5-d]pyrimidin-7(6H)-one]
  activity at 10 µM: 110%

## Cc1cccc(Cl)c1-n1cnc2nc(Sc3ccc(F)cc3)sc2c1=O [LYH150908, 6-(2-Chloro-6-methylphenyl)-2-((4-fluorophenyl)thio)thiazolo[4,5-d]pyrimidin-7(6H)-one]
  activity at 10 µM: 200%
  EC50: 10 µM

## Cc1ccc(Nc2nc3ncn(-c4c(C)cccc4Br)c(=O)c3s2)cc1F [JWX-A-C0106, 6-(2-Bromo-6-methylphenyl)-2-((3-fluoro-4-methylphenyl)amino)thiazolo[4,5-d]pyrimidin-7(6H)-one]
  activity at 10 µM: 200%
  EC50: 10 µM

## Cc1cc(C)c(-n2cnc3nc(Nc4ccccc4)sc3c2=O)c(C)c1 [LD252, 6-Mesityl-2-(phenylamino)thiazolo[4,5-d]pyrimidin-7(6H)-one]
  activity at 10 µM: 110%

## Cc1cccc(Cl)c1-n1cnc2nc(NC(=O)c3ccc(C(F)(F)F)cc3)sc2c1=O [JWX-A-C1128, N-(6-(2-Chloro-6-methylphenyl)-7-oxo-6,7-dihydrothiazolo[4,5-d]pyrimidin-2-yl)-4-(trifluoromethyl)benzamide]
  activity at 10 µM: 200%
  EC50: 10 µM

## Cc1cccc(Cl)c1-n1cnc2nc(NC(=O)c3ccc(F)cc3)sc2c1=O [JWX-A0617, N-(6-(2-Chloro-6-methylphenyl)-7-oxo-6,7-dihydrothiazolo[4,5-d]pyrimidin-2-yl)-4-fluorobenzamide]
  activity at 10 µM: 150%
  EC50: 10 µM

## Cc1nc(Cl)cc(Nc2nc3nnn(-c4c(C)cccc4Cl)c(=O)c3s2)n1 [JWX-A3N, 6-((6-Chloro-2-methylpyrimidin-4-yl)amino)-3-(2-chloro-6-methylphenyl)thiazolo[4,5-d][1,2,3]triazin-4(3H)-one]
  activity at 10 µM: 110%

## Cc1ccc(Nc2nc3ncn(-c4c(C)cccc4Cl)c(=O)c3s2)cc1C [JWX-A0315, 6-(2-Chloro-6-methylphenyl)-2-((3,4-dimethylphenyl)amino)thiazolo[4,5-d]pyrimidin-7(6H)-one]
  activity at 10 µM: 650%
  EC50: 6.99 µM

## Cc1cccc(Cl)c1-n1cnc2nc(Sc3cccc(F)c3)sc2c1=O [LYH151215, 6-(2-Chloro-6-methylphenyl)-2-((3-fluorophenyl)thio)thiazolo[4,5-d]pyrimidin-7(6H)-one]
  EC50: 10 µM

## Cc1cccc(Cl)c1-n1cnc2nc(Nc3ccccc3F)sc2c1=O [JWX-A0611, 6-(2-Chloro-6-methylphenyl)-2-((2-fluorophenyl)amino)thiazolo[4,5-d]pyrimidin-7(6H)-one]
  activity at 10 µM: 200%
  EC50: 10 µM

## Cc1cccc(Cl)c1-n1cnc2nc(SCc3cccc(F)c3)sc2c1=O [LYH150310-3F, 6-(2-Chloro-6-methylphenyl)-2-((3-fluorobenzyl)thio)thiazolo[4,5-d]pyrimidin-7(6H)-one]
  activity at 10 µM: 500%
  EC50: 10 µM

## Cc1ccc(Nc2nc3ncn(-c4c(C)cccc4Cl)c(=O)c3s2)cc1 [JWX-A1029, 6-(2-Chloro-6-methylphenyl)-2-(p-tolylamino)thiazolo[4,5-d]pyrimidin-7(6H)-one]
  EC50: 7.47 µM

## Cc1cccc(Cl)c1-n1cnc2nc(NC(=O)c3ccc(Br)cc3)sc2c1=O [JWX-A-C1122, N-(6-(2-chloro-6-methylphenyl)-7-oxo-6,7-dihydrothiazolo[4,5-d]pyrimidin-2-yl)-4-bromobenzamide]
  activity at 10 µM: 1000%
  EC50: 9.8 µM

## Cc1cccc(Cl)c1-n1cnc2nc(NC(=O)c3ccccc3)sc2c1=O [JWX-A0121, N-(6-(2-Chloro-6-methylphenyl)-7-oxo-6,7-dihydrothiazolo[4,5-d]pyrimidin-2-yl)benzamide]
  activity at 10 µM: 200%
  EC50: 10 µM

## Cc1ccc(Nc2nc3ncn(-c4ccccc4Cl)c(=O)c3s2)cc1 [JWX-A0415, 6-(2-Chlorophenyl)-2-(p-tolylamino) thiazolo[4,5-d]pyrimidin-7(6H)-one]
  activity at 10 µM: 680%
  EC50: 10 µM

## Cc1cccc(Cl)c1-n1cnc2nc(Nc3ccc(F)c(F)c3)sc2c1=O [JWX-A-C0915, 6-(2-Chloro-6-methylphenyl)-2-((3,4-difluorophenyl)amino)thiazolo[4,5-d]pyrimidin-7(6H)-one]
  activity at 10 µM: 300%
  EC50: 10 µM

From patent US10450326B2, “Thiazolopyrimidinone compounds and preparation methods and use thereof” (PEKING UNIVERSITY, priority 2015, dated 2019)
